Source: US5665886A, “Salts of substituted nitrogenous heteroaromatic compounds, a process for their preparation and pharmaceutical compositions containing them” (Sanofi, priority 1994, dated 1997)

Tested on: substance P receptor NK1
Assay: Binding (inhibition of fixation) of [125I]BH-SP to NK1 receptors in rat cortex, guinea pig ileum and human lymphoblastic cells
Experimental: The affinity of compounds for tachykinin receptors has been evaluated in vitro by a number of biochemical tests using radioligands: 1) Bonding of [^125 I]BH-SP (substance P labelled with iodine-125 using a Bolton-Hunter reagent) to NK1 receptors in the rat cortex, the guinea pig ileum and human lymphoblastic cells. The tests were carried out as described in X. Emonds et al., (Eur. J. Pharmacol., 1993, 250, 403-413).

Structure (SMILES)	antagonism of substance P receptor NK1
CC(C)Oc1cccc(CC(=O)N(C)CC(CC[n+]2ccc(Cc3ccccc3)cc2)c2ccc(Cl)c(Cl)c2)c1 (centres unmarked) [Example 2, 4-benzyl-1-[3-(3,4-dichlorophenyl)-4)-4-[N-methyl-(3-iso-propyloxyphenyl)acetylamino]butyl]pyridinium methanesulfonate dihydrate]	powerful antagonists
CC(C)Oc1cccc(CC(=O)N2CCCC(CC[n+]3ccc(Cc4ccccc4)cc3)(c3ccc(Cl)c(Cl)c3)C2)c1.O.O.[Cl-] (centres unmarked) [Example 4, 4-benzyl-1-[2-[3-(3,4-dichlorophenyl)-1-[(3-isopropoxyphenyl)-acetyl]piperidin-3-yl]ethyl]pyridinium chloride dihydrate]	powerful antagonists
